We go through 2 compounds from patent US12287324B2, “Companion diagnostics for NSAIDS and donepezil for treating specific subpopulations of patients suffering from Alzheimer's disease” (University of North Texas Health Science Center at Fort …, priority 2018, dated 2025).

This assay concerns Individuals with a diagnosis of probable AD. Kind of assay: ADCS anti-inflammatory clinical trial, 1-year exposure; MMSE and CDR-SB outcomes by treatment arm and proinflammatory endophenotype. In kind it is in vivo, human. Particulars: for MMSE Change, mean (SD): change = screening − 12-month, positive = decline; for participants with mild decline in MMSE (number) / participants with mild decline in MMSE (percent of arm): MMSE decline of 1-2 points over 12 mo; for participants who declined 3 or more points on MMSE (number) / participants who declined 3 or more points on MMSE (percent of arm): over 12-months (adverse responders); for participants with improvement in MMSE scores over 12-months (number) / participants with improvement in MMSE scores over 12-months (percent of arm): responders = improved MMSE >=1 point over 12 mo. The source says:
Data source. Banked plasma samples from the Alzheimer's Disease Cooperative Studies (ADCS) anti-inflammatory clinical trial were used. […] This was a multicenter, randomized, double-blind, placebo-controlled parallel group trial with 1-year exposure to study medications across forty ambulatory treatment centers affiliated with the ADCS. […] Inclusion criteria were as follows: age 50 or older, MMSE score of 13-26 and diagnosis of probable AD. Stable use of cholinesterase inhibitors was allowed.
Statistical Analyses. Biomarker data were transformed using the Box-Cox transformation per previously published protocols, relevant portions incorporated herein by reference. Support vector machine (SVM) analyses were utilized to build the proteomic profiles simultaneously classifying all outcome groups in R per the inventors previously published methods, relevant portions incorporated herein by reference. SVM analyses are capable of simultaneously taking into account large volume data to generate an overall profile (e.g., over and under-expression of select proteins) that most accurately classifies multiple outcomes rather than only binary outcomes. MMSE change scores were utilized as the outcome variables for the study (i.e. MMSE screening−MMSE 12-month follow-up=MMSE change). Participants were classified into four groups based on change in MMSE scores over 12-months: responders (improved MMSE scores of >=1 point over 12 mo), stable (no change in MMSE over 12 months), non-responders (MMSE decline of 1-2 points over 12 mo) or adverse responders (MMSE decline of 3 or more points over 12 mo). To build inflammatory profiles of treatment response, group status (i.e. treatment response) was utilized as the outcome variable in SVM models with pre-randomization inflammatory proteins as the predictor variable. In order to determine if the proinflammatory profile of treatment response was drug-specific, analyses were conducted utilizing the total sample as well as within specific study treatment arms.
Next, MMSE change scores were dichotomized into improvement versus stable or decline over the 12-mo period.

Setting [1] is: High proinflammatory endophenotype (n = 8).
[2] abbreviates: Low proinflammatory endophenotype (n = 7).
Where [3] appears, read: Middle proinflammatory endophenotype (n = 36).
Setting [4] is: within treatment arm, no change in MMSE over 12 months.

Entries after “also recorded” stand apart in the source; their conditions may differ.

For `COc1ccc2cc([C@H](C)C(=O)O)ccc2c1` [Naproxen, naproxen], under setting [1], the “CDR-SB 12 mo, mean (SD)” value is listed as 5.36 (3.0); the “CDR-SB Change, mean (SD)” value is on record as 0.7 (2.5); the “MMSE 12 mo, mean (SD)” value is on record as 21.2 (5.3). In addition, where the note is “High proinflammatory endophenotype (n = 8), p = 0.02 vs placebo high group”, the “MMSE Change, mean (SD)” value is given as −0.13 (3.1). In addition, under setting [2], the “CDR-SB 12 mo, mean (SD)” value is 9.8 (4.1); the “CDR-SB Change, mean (SD)” value was −2.5 (2.1); the “MMSE 12 mo, mean (SD)” value is listed as 16.1 (5.5); the “MMSE Change, mean (SD)” value is 1.5 (3.1). Further, under setting [3], the “CDR-SB 12 mo, mean (SD)” value is on record as 8.4 (4.1); the “CDR-SB Change, mean (SD)” value is on record as −2.6 (2.5); the “MMSE 12 mo, mean (SD)” value is given as 16.5 (6.4); the “MMSE Change, mean (SD)” value is recorded as 4.2 (4.6). The “decline / change in MMSE scores over a 12 mo period as compared to the placebo group” value (high end of the proinflammatory endophenotype (CRP>1015.52 & TNFα>0.64), F[1,6]=8.2, p=0.03) is given as “significantly reduced decline; also recorded: significantly better”. Moreover, the “average score of dichotomized MMSE change (improvement versus stable or decline)” value (high proinflammatory endophenotype, 12-mo period, Placebo group 0.25) came out at 0.63. Also, the “patients improved on MMSE (dichotomized)” value (high proinflammatory endophenotype, 12-mo period, Placebo group 25%) is on record as 63%. The “improvement in MMSE scores over 12 months as compared to the Placebo group” value (high proinflammatory endophenotype, age, gender, education, APOE4 as covariates, F[1,6]=10.9, p=0.02) was “significant improvement”. The “cognitive course (MMSE) in the low end of the proinflammatory endophenotype” value (low end, CRP and TNFα cut-scores of the naproxen-specific algorithm) is “trend towards those in the low end to experience significant decline”. Where the note is “within treatment arm”, the “participants with mild decline in MMSE (number)” value is 10, the “participants with mild decline in MMSE (percent of arm)” value is on record as 20%, the “participants who declined 3 or more points on MMSE (number)” value is reported as 26 and the “participants who declined 3 or more points on MMSE (percent of arm)” value is 51%. Under “within treatment arm”, the “participants with improvement in MMSE scores over 12-months (number)” value was 10 and the “participants with improvement in MMSE scores over 12-months (percent of arm)” value is reported as 20%.

Take `CS(=O)(=O)c1ccc(C2=C(c3ccccc3)C(=O)OC2)cc1` [Rofecoxib, rofecoxib]: for the setting “within treatment arm”, the “participants with mild decline in MMSE (number)” value is 14, the “participants with mild decline in MMSE (percent of arm)” value stood at 25%, the “participants who declined 3 or more points on MMSE (number)” value was found to be 23 and the “participants who declined 3 or more points on MMSE (percent of arm)” value is 42%. Also, for the setting “within treatment arm”, the “participants with improvement in MMSE scores over 12-months (number)” value amounted to 9 and the “participants with improvement in MMSE scores over 12-months (percent of arm)” value is given as 16%. Further, under setting [4], the “participants who remained stable on MMSE (number)” value is 8 and the “participants who remained stable on MMSE (percent of arm)” value worked out at 15%.
